# Test results from US20090012085A1, “DOSAGE FORMS AND METHODS OF TREATMENT USING A TYROSINE KINASE INHIBITOR” (priority 2005, published 2009).
# Read-outs that look alike come from different tables or passages of the source.
# Experiment: Phase I dose-escalating study, plasma pharmacokinetics in patients with solid tumor
# Format: in vivo, human
# Details: human, plasma; for concentration at 3 h: nominal time 3 h; for concentration at 6 h: nominal time 6 h; for concentration at 8 h: nominal time 8 h; for concentration at 10 h: nominal time 10 h; for concentration at 4 h: nominal time 4 h; for concentration at 0 h: nominal time 0 h; for concentration at 1 h: nominal time 1 h; for concentration at 2 h: nominal time 2 h; for concentration at 20 h: nominal time 20 h; for concentration at 48 h: nominal time 48 h; for concentration at 72 h: nominal time 72 h; for concentration at 96 h: nominal time 96 h; for concentration at 144 h: nominal time 144 h; for AUC(0-t): read-out: AUC(0-24), mean (% CV); for Cmax: read-out: Cmax, mean (% CV); for Tmax: read-out: tmax, mean (% CV); for half-life: read-out: t½, mean (% CV) (converted)
# Procedure: Cmax values, or maximum total plasma concentrations, of a compound of formula 1 can be measured according to techniques well known to those skilled in the art. For example, after a compound of formula 1 has been administered to a mammal, blood samples can be taken at fixed time points over a period of time (e.g. 24 hours) and the serum or plasma concentration of compound of formula 1 can be measured using standard analytical techniques known in the art. In vivo determinations Cmax can then be made by plotting the serum or plasma concentration of compound of formula 1 along the ordinate (y-axis) against time along the abscissa (x-axis).
# The maleate salt of compound 1 was administered to human patients with solid tumor malignancies not amenable to conventional therapies in a Phase I dose-escalating multicenter study. The types of tumor malignancies included colorectal carcinoma, renal cell carcinoma, esophageal carcinoma, thymus carcinoma, mastocytosis, lung cancer and multiple endocrine neoplasia type II. Patients were treated in cohorts of 6 with escalating QD (once per day) doses of the maleate salt of compound 1 under fasting conditions. Each study cycle of 5 weeks consisted of 4 weeks of treatment followed by 1 week of rest (4/1 schedule), or continuous dosing without any rest period.
# Full pharmacokinetic profiles were collected on Cycle 1 Day 1 (C1D1), Cycle 1 Day 28 (C1D28), and Cycle 2 Day 28 (C2D28). Preliminary pharmacokinetic parameters for the first 44 patients, i.e. the first 7 dosing groups, were estimated using nominal collection times and quality-controlled, non-quality assured bioanalytical data. The dosage amounts in Table 1A and Table 1B are free base equivalent amounts.
# [1] = 150 mg QD, 150 mg QD 4/1 (n = 5), read-out: Mean plasma concentration following the last dose on cycle 1 day 28
# [2] = 150 mg QD, 150 mg QD Continuous (n = 6), read-out: Mean plasma concentration following the last dose on cycle 1 day 28
# [3] = 150 mg, 150 mg QD 4/1 (n = 5), read-out: Mean plasma concentration following the last dose on cycle 1 day 28
# [4] = 150 mg, 150 mg QD (4/1), C1D1 (n = 7)
# [5] = 150 mg, 150 mg QD (4/1), C1D28 (n = 5)
# [6] = 150 mg, 150 mg QD (4/1), C2D28 (n = 4)
# [7] = 150 mg, 150 mg QD Continuous (n = 6), read-out: Mean plasma concentration following the last dose on cycle 1 day 28
# [8] = 200 mg QD, 200 mg QD 4/1 (n = 5), read-out: Mean plasma concentration following the last dose on cycle 1 day 28
# [9] = 200 mg, 200 mg QD 4/1 (n = 5), read-out: Mean plasma concentration following the last dose on cycle 1 day 28
# [10] = 200 mg, 200 mg QD (4/1), C1D1 (n = 6)
structure (smiles),measurement,setting,value
"Cc1[nH]c(/C=C2\C(=O)Nc3ccc(F)cc32)c(C)c1C(=O)NC[C@H](O)CN1CCOCC1 [compound 1, 5-[(Z)-(5-fluoro-2-oxo-1,2-dihydro-3H-indol-3-ylidene)methyl]-N-[(2S)-2-hydroxy-3-morpholin-4-ylpropyl]-2,4-dimethyl-1H-pyrrole-3-carboxamide]",concentration at 3 h,[1],268 ng/mL
same,concentration at 6 h,[1],161 ng/mL
same,concentration at 8 h,[1],142 ng/mL
same,concentration at 10 h,[1],132 ng/mL
same,concentration at 3 h,[2],407 ng/mL
same,concentration at 4 h,[2],519 ng/mL
same,concentration at 6 h,[2],471 ng/mL
same,concentration at 8 h,[2],404 ng/mL
same,concentration at 10 h,[2],345 ng/mL
same,concentration at 0 h,[3],99.8 ng/mL
same,concentration at 1 h,[3],184 ng/mL
same,concentration at 2 h,[3],252 ng/mL
same,concentration at 4 h,[3],231 ng/mL
same,concentration at 20 h,[3],42.9 ng/mL
same,concentration at 24 h,"150 mg, 150 mg QD 4/1 (n = 5), nominal time 24 h, read-out: Mean plasma concentration following the last dose on cycle 1 day 28",94.8 ng/mL
same,concentration at 48 h,[3],31.2 ng/mL
same,concentration at 72 h,[3],9.08 ng/mL
same,concentration at 96 h,[3],4.17 ng/mL
same,concentration at 144 h,[3],1.52 ng/mL
same,AUC(0-t),[4],3370 ng·h/mL
same,concentration at 24 h,"150 mg, 150 mg QD (4/1), C1D1 (n = 7), read-out: C(trough, 24 h), mean (% CV)",81.7 ng/mL
same,Cmax,[4],421 ng/mL
same,Tmax,[4],1.6 h
same,half-life,[4],13.6 h
same,AUC(0-t),[5],2960 ng·h/mL
same,concentration at 24 h,"150 mg, 150 mg QD (4/1), C1D28 (n = 5), read-out: C(trough, 24 h), mean (% CV)",75.8 ng/mL
same,Cmax,[5],299 ng/mL
same,Tmax,[5],1.8 h
same,half-life,[5],19.3 h
same,AUC(0-t),[6],3090 ng·h/mL
same,concentration at 24 h,"150 mg, 150 mg QD (4/1), C2D28 (n = 4), read-out: C(trough, 24 h), mean (% CV)",54.6 ng/mL
same,Cmax,[6],269 ng/mL
same,Tmax,[6],3 h
same,half-life,[6],13.2 h
same,concentration at 0 h,[7],124 ng/mL
same,concentration at 1 h,[7],244 ng/mL
same,concentration at 2 h,[7],453 ng/mL
same,concentration at 20 h,[7],104 ng/mL
same,concentration at 24 h,"150 mg, 150 mg QD Continuous (n = 6), nominal time 24 h, read-out: Mean plasma concentration following the last dose on cycle 1 day 28",271 ng/mL
same,concentration at 3 h,[8],396 ng/mL
same,concentration at 4 h,[8],441 ng/mL
same,concentration at 6 h,[8],463 ng/mL
same,concentration at 8 h,[8],349 ng/mL
same,concentration at 10 h,[8],361 ng/mL
same,concentration at 0 h,[9],353 ng/mL
same,concentration at 1 h,[9],408 ng/mL
same,concentration at 2 h,[9],408 ng/mL
same,concentration at 20 h,[9],189 ng/mL
same,concentration at 24 h,"200 mg, 200 mg QD 4/1 (n = 5), nominal time 24 h, read-out: Mean plasma concentration following the last dose on cycle 1 day 28",259 ng/mL
same,concentration at 48 h,[9],87.6 ng/mL
same,concentration at 72 h,[9],31.4 ng/mL
same,concentration at 96 h,[9],13 ng/mL
same,concentration at 144 h,[9],4.77 ng/mL
same,AUC(0-t),[10],3440 ng·h/mL
same,concentration at 24 h,"200 mg, 200 mg QD (4/1), C1D1 (n = 6), read-out: C(trough, 24 h), mean (% CV)",147 ng/mL
same,Cmax,[10],262 ng/mL
same,Tmax,[10],8.7 h
